In paper PMC11790914, “Chemogenomics for steroid hormone receptors (NR3)” (Communications Chemistry, 2025):
Several values for one entry are separate records, joined by “and”; a condition that tells them apart may be missing. Equal values may be shown once.

Experiments:
[1] = molecular target: T1, AURKA (Homo sapiens, UniProt O14965); test: Liability panel screening by DSF: AURKA; type: binding; conditions: DSF, 20 µM, n=2; read-out: Mean ΔTM AURKA
T1 construct: made in house
T1 sequence (O14965 1-403): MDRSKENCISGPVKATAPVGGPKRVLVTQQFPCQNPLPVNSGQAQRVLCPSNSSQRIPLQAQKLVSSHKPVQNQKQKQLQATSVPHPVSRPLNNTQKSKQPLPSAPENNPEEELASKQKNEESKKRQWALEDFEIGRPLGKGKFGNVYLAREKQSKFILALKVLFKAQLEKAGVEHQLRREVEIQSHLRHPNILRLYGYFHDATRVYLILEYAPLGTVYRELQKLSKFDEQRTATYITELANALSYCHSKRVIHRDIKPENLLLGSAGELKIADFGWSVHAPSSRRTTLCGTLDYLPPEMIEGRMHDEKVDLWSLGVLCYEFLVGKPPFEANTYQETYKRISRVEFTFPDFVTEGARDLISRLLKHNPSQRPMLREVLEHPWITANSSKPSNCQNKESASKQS
Method in brief: (§1)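 Thermal shift: in-house recombinant protein at 2 µM in 10 mM HEPES pH 7.5 with 500 mM NaCl, SYPRO Orange 1:1000, heated at 3 °C/min to 85 °C in technical duplicates. Tm is the Boltzmann inflection point, reported as ∆Tm in K.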

[2] = molecular target: T2, BRPF1 (Homo sapiens, UniProt P55201); test: Liability panel screening by DSF: BRPF1; type: binding; conditions: DSF, 20 µM, n=2; read-out: Mean ΔTM BRPF1
T2 construct: This panel comprised ten highly ligandable kinases and bromodomains; made in house
T2 sequence (P55201 628-732 limits assumed): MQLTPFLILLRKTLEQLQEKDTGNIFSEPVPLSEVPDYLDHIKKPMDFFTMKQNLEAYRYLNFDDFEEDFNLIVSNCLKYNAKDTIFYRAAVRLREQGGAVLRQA
Method in brief: as §1

[3] = molecular target: T3, GSK3B (Homo sapiens, UniProt P49841); test: Liability panel screening by DSF: GSK3B; type: binding; conditions: DSF, 20 µM, n=2; read-out: Mean ΔTM GSK3B
T3 construct: made in house
T3 sequence (P49841 whole entry, species assumed): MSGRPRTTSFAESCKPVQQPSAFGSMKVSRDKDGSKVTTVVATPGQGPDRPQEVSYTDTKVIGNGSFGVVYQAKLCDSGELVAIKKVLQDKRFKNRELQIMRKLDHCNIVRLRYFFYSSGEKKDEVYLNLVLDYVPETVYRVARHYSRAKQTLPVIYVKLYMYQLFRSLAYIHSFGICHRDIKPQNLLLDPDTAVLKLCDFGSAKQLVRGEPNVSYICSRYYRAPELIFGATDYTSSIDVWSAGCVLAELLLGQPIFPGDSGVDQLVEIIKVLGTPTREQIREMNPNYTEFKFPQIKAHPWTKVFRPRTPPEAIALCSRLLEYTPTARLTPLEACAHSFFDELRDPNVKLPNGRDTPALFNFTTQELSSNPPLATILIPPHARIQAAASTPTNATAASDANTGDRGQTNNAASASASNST

[4] = molecular target: T4, CDK2 (Homo sapiens, UniProt P24941); test: Liability panel screening by DSF: CDK2; type: binding; conditions: DSF, 20 µM, n=2; read-out: Mean ΔTM CDK2
T4 construct: made in house
Method in brief: as §1

[5] = molecular target: T5, MAPK1 (Homo sapiens, UniProt P28482); test: Liability panel screening by DSF: MAPK1; type: binding; conditions: DSF, 20 µM, n=2; read-out: Mean ΔTM MAPK1
T5 construct: made in house
T5 sequence (P28482 whole entry, species assumed): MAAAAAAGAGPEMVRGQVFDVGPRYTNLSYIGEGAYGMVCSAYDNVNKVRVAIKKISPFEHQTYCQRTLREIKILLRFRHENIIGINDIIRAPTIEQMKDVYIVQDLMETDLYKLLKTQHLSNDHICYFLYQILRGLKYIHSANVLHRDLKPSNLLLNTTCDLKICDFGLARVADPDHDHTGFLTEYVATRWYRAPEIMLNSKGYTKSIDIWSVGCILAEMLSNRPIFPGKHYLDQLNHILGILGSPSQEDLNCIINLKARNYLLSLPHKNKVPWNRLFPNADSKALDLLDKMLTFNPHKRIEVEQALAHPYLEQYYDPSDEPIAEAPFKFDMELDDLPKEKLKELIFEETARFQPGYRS
Method in brief: as §1

[6] = system: HEK293T cells; test: Cytotoxicity: apoptosis induction (caspase-3/7 DEVD fluorogenic DNA dye); conditions: 3 µM; HEK293T, 24 h; apoptotic cell count normalized to 0.1% DMSO; single replicates
[7] = molecular target: T6, BRD4 (Homo sapiens, UniProt O60885); test: Liability panel screening by DSF: BRD4; type: binding; conditions: DSF, 20 µM, n=2; read-out: Mean ΔTM BRD4
T6 construct: This panel comprised ten highly ligandable kinases and bromodomains; made in house
Method in brief: as §1

[8] = system: Gal4-VP16; type: cell-based; conditions: 3 µM; vs. DMSO ctrl; single replicates n=1-3
Procedure: Five hours after transfection, the cells were incubated with the NR3 CG compound candidates at the recommended concentrations by changing the medium to Opti-MEM supplemented with penicillin (100 µ/mL) and streptomycin (100 µg/mL) additionally containing 0.1% DMSO and the respective test compound or 0.1% DMSO alone as untreated control. Firefly (reporter) and renilla (control) luminescence were measured after 14–16 h incubation using the Dual-Glo® Luciferase Assay System (Promega, Fitchburg, Wisconsin, USA; #E2980) according to manufacturer’s protocol on a Tecan Spark® 10M multimode microplate reader (Tecan Group AG, Männedorf, Switzerland). To obtain relative light units (RLU) firefly luminescence was divided by renilla luminescence and multiplied by 1000. Fold activation was obtained by dividing the mean RLU of a test sample by the mean RLU of the DMSO (0.1%) control. Experiments were performed in singlets in at least three biologically independent repeats.
are labeled according to their mode of action (yellow - agonist, grey - antagonist, grey with label D - degrader) and grouped by their
NR3 subfamily main targets.
reporter activity at the indicated concentrations expressed as mean fold reporter gene activity (n=3).

[9] = molecular target: T7, ABL1 (Homo sapiens, UniProt P00519); test: Liability panel screening by DSF: ABL1; type: binding; conditions: DSF, 20 µM, n=2; read-out: Mean ΔTM ABL1
T7 construct: made in house
T7 sequence (P00519 whole entry, species assumed): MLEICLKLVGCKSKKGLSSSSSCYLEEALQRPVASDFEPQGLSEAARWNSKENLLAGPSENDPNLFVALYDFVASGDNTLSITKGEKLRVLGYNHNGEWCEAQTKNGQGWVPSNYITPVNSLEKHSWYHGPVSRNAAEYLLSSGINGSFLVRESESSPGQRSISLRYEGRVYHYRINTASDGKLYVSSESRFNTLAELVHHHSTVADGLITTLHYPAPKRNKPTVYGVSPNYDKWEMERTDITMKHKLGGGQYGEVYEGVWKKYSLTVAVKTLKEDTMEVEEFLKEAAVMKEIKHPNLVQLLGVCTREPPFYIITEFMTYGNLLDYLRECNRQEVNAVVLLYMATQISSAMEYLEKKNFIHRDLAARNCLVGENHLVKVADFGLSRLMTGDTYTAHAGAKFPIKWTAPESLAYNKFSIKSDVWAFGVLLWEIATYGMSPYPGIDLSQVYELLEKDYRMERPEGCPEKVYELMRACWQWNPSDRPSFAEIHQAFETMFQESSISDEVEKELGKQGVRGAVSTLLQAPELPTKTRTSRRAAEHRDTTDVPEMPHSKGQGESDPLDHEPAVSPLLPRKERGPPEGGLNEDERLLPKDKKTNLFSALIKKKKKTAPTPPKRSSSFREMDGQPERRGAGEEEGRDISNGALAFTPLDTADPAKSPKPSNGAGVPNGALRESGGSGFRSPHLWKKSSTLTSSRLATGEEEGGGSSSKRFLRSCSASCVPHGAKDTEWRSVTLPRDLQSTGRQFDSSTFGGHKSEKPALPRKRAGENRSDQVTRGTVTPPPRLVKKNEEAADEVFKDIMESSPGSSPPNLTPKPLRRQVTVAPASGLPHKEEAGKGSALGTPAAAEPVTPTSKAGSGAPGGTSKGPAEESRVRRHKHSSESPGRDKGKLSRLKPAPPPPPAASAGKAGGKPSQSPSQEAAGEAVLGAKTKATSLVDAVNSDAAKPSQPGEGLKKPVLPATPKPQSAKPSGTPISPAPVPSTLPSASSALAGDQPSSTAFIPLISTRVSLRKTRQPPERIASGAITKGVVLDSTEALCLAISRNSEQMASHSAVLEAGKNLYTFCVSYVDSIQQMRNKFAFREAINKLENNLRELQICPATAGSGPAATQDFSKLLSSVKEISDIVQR
Method in brief: as §1

[10] = molecular target: T8, CSNK1D (Homo sapiens, UniProt P48730); test: Liability panel screening by DSF: CSNK1D; type: binding; conditions: DSF, 20 µM, n=2; read-out: Mean ΔTM CSNK1D
T8 construct: made in house
T8 sequence (P48730 whole entry, species assumed): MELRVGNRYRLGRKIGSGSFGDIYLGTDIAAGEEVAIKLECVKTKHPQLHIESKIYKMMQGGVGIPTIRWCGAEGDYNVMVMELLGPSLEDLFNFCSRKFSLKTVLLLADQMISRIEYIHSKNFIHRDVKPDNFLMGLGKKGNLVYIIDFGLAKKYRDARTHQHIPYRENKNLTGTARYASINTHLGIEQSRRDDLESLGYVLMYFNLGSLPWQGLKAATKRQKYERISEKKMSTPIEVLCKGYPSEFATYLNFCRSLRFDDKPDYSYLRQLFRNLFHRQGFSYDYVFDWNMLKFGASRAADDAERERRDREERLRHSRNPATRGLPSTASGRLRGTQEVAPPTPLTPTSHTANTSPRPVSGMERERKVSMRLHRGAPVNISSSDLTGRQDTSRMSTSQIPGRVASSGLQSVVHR
Method in brief: as §1

[11] = system: NF-κB activity in HEK293 NF-κB reporter cells; test: NF-kB activity assay (GFP reporter, ionomycin/PMA); type: cell-based; conditions: n=3
Method in brief: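 HEK293 NF-κB GFP reporter cells given compound in 0.1% DMSO for 4 h, then stimulated with ionomycin 100 ng/mL plus PMA 10 ng/mL. Imaged every 90 min over 24 h; GFP-positive cell count normalized to confluence, three independent biological replicates.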

[12] = system: HEK293T cells; test: Cytotoxicity: necrosis induction (red fluorescent dye for permeable plasma membranes); type: cell-based; conditions: 3 µM, 24 h, necrotic cell count normalized to 0.1% DMSO, single replicates;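 note: compounds applied in DMEM high glucose with 0.1% FCS and 0.1% DMSO, necrotic HEK293T cells counted by red staining of cells whose plasma membranes had become permeable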
[13] = system: ATF6 activity in Hela ATF6 reporter cells; test: Endoplasmic reticulum stress assay (ATF6 Renilla luciferase reporter, tunicamycin); type: cell-based
Method in brief: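 HeLa ATF6 Renilla reporter cells were pretreated 4 h with compounds in 0.1% DMSO, then stimulated with tunicamycin (100 ng/mL) for 18 h. Renilla luminescence (DualGlo) was normalized to 0.1% DMSO control; five independent experiments.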

[14] = system: HEK293T cells; test: Cytotoxicity: growth-rate (change in confluence over 24 h); conditions: 3 µM, normalized to 0.1% DMSO control, single replicates (n=1...)

## CCN(CC)c1ccc(/C=N/NC(=O)c2ccc(O)cc2)cc1 [DY131]
[1]
  ΔTm at 20 µM: -2.05 °C
[2]
  ΔTm at 20 µM: 1.09 °C
[3]
  ΔTm at 20 µM: -0.28 °C
[4]
  ΔTm at 20 µM: 0.35 °C
[5]
  ΔTm at 20 µM: 0.23 °C
[6]
  Apoptosis induction [AI]: -15.91 and -17.65 and -9.63 and -8.53 and 1.25 and 1.40
[7]
  ΔTm at 20 µM: -0.92 °C
[8]
  VP16 control [fold reporter gene activity]: 1.12 fold reporter gene activity and 1.24 fold reporter gene activity and 1.20 fold reporter gene activity
[9]
  ΔTm at 20 µM: 0.66 °C
[10]
  ΔTm at 20 µM: -0.0354 °C
[11]; 3 µM, 1,5 h
  Mean NFκB response: 3734.45 GFP+-cells/confluence ∙ 1000
[11]; 3 µM, 4,5 h
  Mean NFκB response: 4226.03 GFP+-cells/confluence ∙ 1000
[11]; 3 µM, 7,5 h
  Mean NFκB response: 9363.33 GFP+-cells/confluence ∙ 1000
[11]; 3 µM, 10,5 h
  Mean NFκB response: 20103.33 GFP+-cells/confluence ∙ 1000
[11]; 3 µM, 13,5 h
  Mean NFκB response: 29726.67 GFP+-cells/confluence ∙ 1000
[11]; 3 µM, 16,6 h
  Mean NFκB response: 36476.67 GFP+-cells/confluence ∙ 1000
[11]; 3 µM, 19,5 h
  Mean NFκB response: 41143.33 GFP+-cells/confluence ∙ 1000
[11]; 3 µM, 22,5 h
  Mean NFκB response: 44036.67 GFP+-cells/confluence ∙ 1000
[11]; 3 µM, 3 h
  Mean NFκB response: 4084.29 GFP+-cells/confluence ∙ 1000
[11]; 3 µM, 6 h
  Mean NFκB response: 5799.09 GFP+-cells/confluence ∙ 1000
[11]; 3 µM, 9 h
  Mean NFκB response: 14733.33 GFP+-cells/confluence ∙ 1000
[11]; 3 µM, 12 h
  Mean NFκB response: 25326.67 GFP+-cells/confluence ∙ 1000
[11]; 3 µM, 15 h
  Mean NFκB response: 33133.33 GFP+-cells/confluence ∙ 1000
[11]; 3 µM, 18 h
  Mean NFκB response: 38383.33 GFP+-cells/confluence ∙ 1000
[11]; 3 µM, 21 h
  Mean NFκB response: 42820.00 GFP+-cells/confluence ∙ 1000
[11]; 3 µM, 24 h
  Mean NFκB response: 45096.67 GFP+-cells/confluence ∙ 1000
[12]
  Necrosis induction [NI]: 0.73 and 0.89 and 0.91 and 0.92
[13]; Hela ATF6 reporter cells, tunicamycin 100 ng/mL, 18 h, compounds at recommended concentrations, n = 5
  ATF6 activity (tunicamycin-induced endoplasmic reticulum stress): strongly ameliorated the tunicamycin-induced endoplasmic reticulum stress
[13]; Homo sapiens, HeLa, 3 µM, single replicates n=1 to n=5, read-out: ER stress [rel. ATF6 activity]
  activity at 3 µM: 25%
[14]
  Growth rate [GR]: 0.59 and 11.37 and 0.74 and 0.90 and 0.70 and 0.29 and 0.57 and 4.91 and 1.76 and 192.70
